Measured values as given in patent US20160122315A1, “CRYSTALLINE IMATINIB MESYLATE PROCESS” (SHILPA MEDICARE LIMITED, priority 2013, published 2016).
Read-outs that look alike come from different tables or passages of the source.

Legend:
[1] = Hygroscopicity of crystalline Form-SA; format: physicochemical; conditions: crystalline solid
[2] = crystal forms disclosed by Zimmermann et al, U.S.'051; cited from earlier work
[3] = compared with the α-crystal form; disclosed in U.S.'051; cited from earlier work

## Cc1ccc(NC(=O)c2ccc(CN3CCN(C)CC3)cc2)cc1Nc1nccc(-c2cccnc2)n1 [Form-SA, 4-[(4-Methyl-1-piperazinyl)methyl]-N-[4-methyl-3-[[4-(3-pyridinyl)-2-pyrimidinyl]amino]-phenyl]benzamide methanesulfonate]
[1]
  hygroscopicity: non-hygroscopic

## CS(=O)(=O)O.Cc1ccc(NC(=O)c2ccc(CN3CCN(C)CC3)cc2)cc1Nc1nccc(-c2cccnc2)n1 [a-crystal form]
[2]
  hygroscopicity: hygroscopic

## CS(=O)(=O)O.Cc1ccc(NC(=O)c2ccc(CN3CCN(C)CC3)cc2)cc1Nc1nccc(-c2cccnc2)n1 [β-crystal form]
[2]
  hygroscopicity: less hygroscopic than the α-crystal form
[3]
  thermodynamic stability: thermodynamically more stable at temperatures below 140 °C
